Test results taken from US20260232658A1, “AZETIDINYL BENZOXAZOLE COMPOUNDS AND THEIR USE AS MER AND AXL INHIBITORS” (DONG-A ST CO., LTD., priority 2022, published 2026).

Experiments:
TYRO3 (455-end) = target: T1, TYRO3 (455-end) (Homo sapiens, UniProt Q06418); test: HTRF kinase activity biochemical assay, TYRO3; settings: recombinant kinase, 10 uM ATP, 30 minutes pre-incubation; read-out: HTRF TYRO IC50;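 also: biotinylated tyrosine kinase substrate phosphorylation detected via streptavidin-XL665 and Eu3+-cryptate anti-phospho antibody time-resolved fluorescence, read after 1 h detection at room temperature, 384-well format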
T1 construct: TYRO3 (455-end); purchased SignalChem, Canada
T1 sequence (Q06418 455-890 limits assumed): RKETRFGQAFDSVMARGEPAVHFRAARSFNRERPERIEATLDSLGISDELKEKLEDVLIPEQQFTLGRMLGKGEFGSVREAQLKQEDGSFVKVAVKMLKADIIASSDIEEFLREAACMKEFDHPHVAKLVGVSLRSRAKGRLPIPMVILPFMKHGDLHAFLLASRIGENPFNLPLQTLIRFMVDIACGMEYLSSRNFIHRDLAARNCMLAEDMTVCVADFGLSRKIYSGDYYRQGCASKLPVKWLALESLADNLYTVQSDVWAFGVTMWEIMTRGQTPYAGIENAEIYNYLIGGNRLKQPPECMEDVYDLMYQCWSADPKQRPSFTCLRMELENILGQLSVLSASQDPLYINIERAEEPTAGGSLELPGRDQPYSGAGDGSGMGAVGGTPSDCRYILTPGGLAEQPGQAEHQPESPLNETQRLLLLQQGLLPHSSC

human MER (528-end) = target: T2, human MER (528-end) (Homo sapiens, UniProt Q12866); test: HTRF kinase activity biochemical assay, MER; settings: recombinant kinase, 10 uM ATP, 30 minutes pre-incubation; read-out: HTRF MERTK IC50;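 also: phosphorylation of a biotin-tagged tyrosine kinase substrate detected by Eu3+-cryptate antibody and streptavidin-XL665 time-resolved fluorescence, read after 1 h at room temperature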
T2 construct: human MER (528-end); purchased Carnabio, Japan
T2 sequence (Q12866 528-999 limits assumed): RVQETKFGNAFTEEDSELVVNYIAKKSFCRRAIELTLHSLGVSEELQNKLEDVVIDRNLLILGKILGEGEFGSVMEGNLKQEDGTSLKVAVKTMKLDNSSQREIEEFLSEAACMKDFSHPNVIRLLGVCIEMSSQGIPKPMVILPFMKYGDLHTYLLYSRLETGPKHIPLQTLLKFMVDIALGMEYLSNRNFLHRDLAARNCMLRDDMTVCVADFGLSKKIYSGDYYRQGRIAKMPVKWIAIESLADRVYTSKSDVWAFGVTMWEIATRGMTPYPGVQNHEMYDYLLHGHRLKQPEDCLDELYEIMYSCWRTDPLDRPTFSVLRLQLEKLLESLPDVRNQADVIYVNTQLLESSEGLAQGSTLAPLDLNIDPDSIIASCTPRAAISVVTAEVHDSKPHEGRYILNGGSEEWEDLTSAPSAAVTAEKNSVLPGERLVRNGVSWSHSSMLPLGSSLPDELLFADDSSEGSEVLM

human AXL (473-end) = target: T3, human AXL (473-end) (Homo sapiens, UniProt P30530); test: HTRF kinase activity biochemical assay, AXL; settings: recombinant kinase, 10 uM ATP, 30 minutes pre-incubation; read-out: HTRF AXL IC50;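 also: phosphorylation of a biotinylated tyrosine kinase substrate detected via Eu3+-cryptate anti-TK antibody and streptavidin-XL665, fluorescence read after a 1 h incubation at room temperature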
T3 construct: human AXL (473-end); purchased SignalChem, Canada
T3 sequence (P30530 473-894 limits assumed): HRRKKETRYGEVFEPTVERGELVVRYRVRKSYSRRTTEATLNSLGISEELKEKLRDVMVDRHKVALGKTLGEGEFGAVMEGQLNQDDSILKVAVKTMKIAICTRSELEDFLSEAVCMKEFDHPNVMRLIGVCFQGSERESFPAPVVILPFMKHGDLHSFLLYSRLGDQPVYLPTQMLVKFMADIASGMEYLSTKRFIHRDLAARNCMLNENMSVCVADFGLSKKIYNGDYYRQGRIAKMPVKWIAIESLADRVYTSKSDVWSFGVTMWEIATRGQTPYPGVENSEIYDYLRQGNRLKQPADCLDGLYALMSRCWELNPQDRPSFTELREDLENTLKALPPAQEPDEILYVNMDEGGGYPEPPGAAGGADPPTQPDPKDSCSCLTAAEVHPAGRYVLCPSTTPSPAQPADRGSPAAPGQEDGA

SMILES	IC50 (TYRO3 (455-end)) [nM]	IC50 (human MER (528-end)) [nM]	IC50 (human AXL (473-end)) [nM]
COC/C=C/c1ccc2nc(N3CC(c4cnc(Nc5cnn(C)c5)c(C(N)=O)n4)C3)oc2c1 [Example 22, 6-(1-{6-[(1E)-3-methoxyprop-1-en-1-yl]-1,3-benzoxazol-2-yl}azetidin-3-yl)-3-[(1-methyl-1H-pyrazol-4-yl)amino]pyrazine-2-carboxamide]	90	< 1	< 1
Cn1cc(Nc2ncc(C3CN(c4nc5ccc(OCc6cnn(CCO)c6)cc5o4)C3)nc2C(N)=O)cn1 [Example 104, 6-[1-(6-{[1-(2-hydroxyethyl)-1H-pyrazol-4-yl]methoxy}-1,3-benzoxazol-2-yl)azetidin-3-yl]-3-[(1-methyl-1H-pyrazol-4-yl)amino]pyrazine-2-carboxamide]	3500	8	59
Cn1cc(Nc2ncc(C3CN(c4nc5ccc(OCC(=O)N6CCCC6)cc5o4)C3)nc2C(N)=O)cn1 [Example 49, 3-[(1-methyl-1H-pyrazol-4-yl)amino]-6-(1-{6-[2-oxo-2-(pyrrolidin-1-yl)ethoxy]-1,3-benzoxazol-2-yl}azetidin-3-yl)pyrazine-2-carboxamide]	2030	4	11
C[Si](C)(C)CCOCn1cc(Nc2ncc(C3CN(c4nc5ccc(O)cc5o4)C3)nc2C(N)=O)cn1 [Example 0, 6-[1-(6-hydroxy-1,3-benzoxazol-2-yl)azetidin-3-yl]-3-[(1-{[2-(trimethylsilyl)ethoxy]methyl}-1H-pyrazol-4-yl)amino]pyrazine-2-carboxamide]	2680	34	60
Cn1cc(Nc2ncc(C3CN(c4nc5ccc(OCC6(O)CCC6)cc5o4)C3)nc2C(N)=O)cn1 [Example 44, 6-(1-{6-[(1-hydroxycyclobutyl)methoxy]-1,3-benzoxazol-2-yl}azetidin-3-yl)-3-[(1-methyl-1H-pyrazol-4-yl)amino]pyrazine-2-carboxamide]	110	< 1	2
CCOC(=O)C(C)(C)c1ccc2nc(N3CC(c4cnc(Nc5cnn(C)c5)c(C(N)=O)n4)C3)oc2c1 [Example 111F, ethyl 2-[2-(3-{6-carbamoyl-5-[(1-methyl-1H-pyrazol-4-yl)amino]pyrazin-2-yl}azetidin-1-yl)-1,3-benzoxazol-6-yl]-2-methylpropanoate]	3230	18	43
Cn1cc(Nc2ncc(C3CN(c4nc5ccc(OCC6(O)COC6)cc5o4)C3)nc2C(N)=O)cn1 [Example 57, 6-(1-{6-[(3-hydroxyoxetan-3-yl)methoxy]-1,3-benzoxazol-2-yl}azetidin-3-yl)-3-[(1-methyl-1H-pyrazol-4-yl)amino]pyrazine-2-carboxamide]	2310	7	8
CC1(C)OCC(Cn2cc(Nc3ncc(C4CN(c5nc6ccc(F)cc6o5)C4)nc3C(N)=O)cn2)O1 (stereo not drawn) [Example 36D, 3-({1-[(2,2-dimethyl-1,3-dioxolan-4-yl)methyl]-1H-pyrazol-4-yl}amino)-6-[1-(6-fluoro-1,3-benzoxazol-2-yl)azetidin-3-yl]pyrazine-2-carboxamide]	430	3	10
Cc1nnc(COc2ccc3nc(N4CC(c5cnc(Nc6cnn(C)c6)c(C(N)=O)n5)C4)oc3c2)o1 [Example 86, 6-(1-{6-[(5-methyl-1,3,4-oxadiazol-2-yl)methoxy]-1,3-benzoxazol-2-yl}azetidin-3-yl)-3-[(1-methyl-1H-pyrazol-4-yl)amino]pyrazine-2-carboxamide]	63	5	11
Cn1cc(Nc2ncc(C3CN(c4nc5ccc(OCC(C)(C)OP(=O)(O)O)cc5o4)C3)nc2C(N)=O)cn1 [Example 112, 1-{[2-(3-{6-carbamoyl-5-[(1-methyl-1H-pyrazol-4-yl)amino]pyrazin-2-yl}azetidin-1-yl)-1,3-benzoxazol-6-yl]oxy}-2-methylpropan-2-yl dihydrogen phosphate]	5860	52	69
Cn1cc(Nc2ncc(C3CN(c4nc5ccc(OC[C@H]6C[C@H]6CO)cc5o4)C3)nc2C(N)=O)cn1 [Example 58, 6-[1-(6-{1[(1S,2R)-2-(hydroxymethyl)cyclopropyl]methoxy}-1,3-benzoxazol-2-yl)azetidin-3-yl]-3-[(1-methyl-1H-pyrazol-4-yl)amino]pyrazine-2-carboxamide]	33	< 1	1
Cn1cc(Nc2ncc(C3CN(c4nc5ccc(CC(=O)N6CCCC6)cc5o4)C3)nc2C(N)=O)cn1 [Example 65, 3-[(1-methyl-1H-pyrazol-4-yl)amino]-6-(1-{6-[2-oxo-2-(pyrrolidin-1-yl)ethyl]-1,3-benzoxazol-2-yl}azetidin-3-yl)pyrazine-2-carboxamide]	1010	< 1	1
Cn1cc(Nc2ncc(C3CN(c4nc5ccc(CO)cc5o4)C3)nc2C(N)=O)cn1 [Example 16, 6-{1-[6-(hydroxymethyl)-1,3-benzoxazol-2-yl]azetidin-3-yl}-3-[(1-methyl-1H-pyrazol-4-yl)amino]pyrazine-2-carboxamide]	860	7	30
Cn1cc(Nc2ccc(C3CN(c4nc5ccc(OCCC(C)(C)OC(=O)CN)cc5o4)C3)nc2C(N)=O)cn1 [Example 110, 4-{[2-(3-{6-carbamoyl-5-[(1-methyl-1H-pyrazol-4-yl)amino]pyridin-2-yl}azetidin-1-yl)-1,3-benzoxazol-6-yl]oxy}-2-methylbutan-2-yl glycinate]	280	< 1	1.8
Cn1cc(Nc2ncc(C3CN(c4nc5ccc(OCC(O)CO)cc5o4)C3)nc2C(N)=O)cn1 (stereo not drawn) [Example 43, 6-{1-[6-(2,3-dihydroxypropoxy)-1,3-benzoxazol-2-yl]azetidin-3-yl}-3-[(1-methyl-1H-pyrazol-4-yl)amino]pyrazine-2-carboxamide]	2140	9	25
Cc1cnc(COc2ccc3nc(N4CC(c5cnc(Nc6cnn(C)c6)c(C(N)=O)n5)C4)oc3c2)s1 [Example 82, 3-[(1-methyl-1H-pyrazol-4-yl)amino]-6-(1-{6-[(5-methyl-1,3-thiazol-2-yl)methoxy]-1,3-benzoxazol-2-yl}azetidin-3-yl)pyrazine-2-carboxamide]	150	< 1	3
Cn1cc(Nc2ncc(C3CN(c4nc5ccc(OC6CCCC6O)cc5o4)C3)nc2C(N)=O)cn1 (stereo not drawn) [Example 79, 6-(1-{6-[(2-hydroxycyclopentyl)oxy]-1,3-benzoxazol-2-yl}azetidin-3-yl)-3-[(1-methyl-1H-pyrazol-4-yl)amino]pyrazine-2-carboxamide]	66	< 1	2
Cn1cc(Nc2ncc(C3CN(c4nc5ccc(-c6ccc(OCCO)cc6)cc5o4)C3)nc2C(N)=O)cn1 [Example 89, 6-(1-{6-[4-(2-hydroxyethoxy)phenyl]-1,3-benzoxazol-2-yl}azetidin-3-yl)-3-[(1-methyl-1H-pyrazol-4-yl)amino]pyrazine-2-carboxamide]	260	1	6
Cn1cc(Nc2ncc(C3CN(c4nc5ccc(OCC(N)=O)cc5o4)C3)nc2C(N)=O)cn1 [Example 37, 6-{1-[6-(2-amino-2-oxoethoxy)-1,3-benzoxazol-2-yl]azetidin-3-yl}-3-[(1-methyl-1H-pyrazol-4-yl)amino]pyrazine-2-carboxamide]	2130	10	29
